For orientation: TGI means the concentration at which net growth stops.

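Interpolation was linear, between the two tested concentrations surrounding the appropriate level; five concentrations were tested over 48 hours in 96-well plates. At the TGI there is no net growth.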 Some results are limits rather than exact numbers.

This passage reports TGI results from PubChem BioAssay (NCI).

Test systems include CAKI-1 renal; OVCAR-8 ovarian; TK-10 renal; NCI-H460 lung; 786-0 renal; OVCAR-3 ovarian; MDA-MB-435; MDA-N; SK-MEL-5 melanoma; K-562 leukemia; HCT-15 colon; SNB-19 CNS; KM12 colon; MALME-3M melanoma; M14 melanoma; NCI-H23 lung; MCF7 breast; SNB-75 CNS; A498 renal; BT-549 breast.
Common to all, as to test: DTP human tumour cell line panel, 48 h

As for `COc1ccc(NS(=O)c2ccccc2OC)cc1` (stereo not drawn), the TGI in the assay with CAKI-1 renal was 68.6 µM; in the assay on OVCAR-8 ovarian, over 100 µM; in the assay on TK-10 renal, over 100 µM; with NCI-H460 lung it was over 100 µM; in the assay with 786-0 renal it was over 100 µM; with OVCAR-3 ovarian it was over 100 µM. The TGI with MDA-MB-435 is over 100 µM; with MDA-N it was over 100 µM; in the assay on SK-MEL-5 melanoma it was 54.4 µM; in the assay on K-562 leukemia, over 100 µM; with HCT-15 colon, over 100 µM; in the assay on SNB-19 CNS, over 100 µM. The concentration for total growth inhibition (TGI) with KM12 colon was 18.1 µM; with MALME-3M melanoma it was 41.1 µM; in the assay with M14 melanoma, over 100 µM; in the assay on NCI-H23 lung, over 100 µM; with MCF7 breast it was 67.3 µM.
Regarding `O=C1CCCCCC1CC(Sc1ccccc1)Sc1ccccc1` (stereo not drawn), the total growth inhibition concentration (TGI) in the assay with CAKI-1 renal, with OVCAR-8 ovarian, with TK-10 renal, in the assay on NCI-H460 lung, with 786-0 renal and in the assay with OVCAR-3 ovarian was over 100 µM in each case. Also, the TGI with MDA-MB-435, in the assay with MDA-N, in the assay with SK-MEL-5 melanoma, in the assay on SNB-75 CNS, in the assay on K-562 leukemia and with HCT-15 colon was over 100 µM throughout. Also, the total growth inhibition concentration (TGI) with SNB-19 CNS, with KM12 colon, in the assay on MALME-3M melanoma, in the assay on A498 renal, with M14 melanoma and in the assay on NCI-H23 lung was over 100 µM throughout. The concentration for total growth inhibition (TGI) in the assay on MCF7 breast was over 100 µM.
Regarding `S=C1N=C(Cl)/C(=C\c2ccco2)N1`, the TGI in the assay with CAKI-1 renal, in the assay with OVCAR-8 ovarian, in the assay on TK-10 renal, in the assay on NCI-H460 lung, with 786-0 renal and in the assay with OVCAR-3 ovarian was over 100 µM throughout. The TGI in the assay with MDA-MB-435, with SK-MEL-5 melanoma, in the assay with SNB-75 CNS, in the assay with K-562 leukemia, in the assay on BT-549 breast and in the assay on HCT-15 colon was over 100 µM each time. Besides, the TGI in the assay with SNB-19 CNS, with KM12 colon, in the assay on MALME-3M melanoma, with A498 renal, with M14 melanoma and with NCI-H23 lung was over 100 µM throughout. Also, the TGI with MCF7 breast was over 100 µM.
For the compound `Cc1n[nH]c(=O)n1/N=C/c1ccncc1`, the TGI with CAKI-1 renal, in the assay with OVCAR-8 ovarian, in the assay with TK-10 renal, with NCI-H460 lung, in the assay on 786-0 renal and in the assay on OVCAR-3 ovarian was over 100 µM each time. In addition, the total growth inhibition concentration (TGI) in the assay on MDA-MB-435, with MDA-N, in the assay on SK-MEL-5 melanoma, in the assay on SNB-75 CNS, in the assay on K-562 leukemia and in the assay with HCT-15 colon was over 100 µM in each case. The concentration for total growth inhibition (TGI) in the assay on SNB-19 CNS, in the assay with KM12 colon, in the assay with MALME-3M melanoma, with A498 renal, in the assay on M14 melanoma and in the assay on NCI-H23 lung was over 100 µM each time.
`CN(C)CCc1ccnc2nc(-c3ccc4ccccc4c3)cn12`: the concentration for total growth inhibition (TGI) in the assay with CAKI-1 renal is over 100 µM; in the assay on OVCAR-8 ovarian, 92.7 µM; in the assay with TK-10 renal, 40.7 µM; in the assay on NCI-H460 lung, 34.1 µM; in the assay on 786-0 renal, 63.2 µM; with OVCAR-3 ovarian, 72 µM. In addition, the concentration for total growth inhibition (TGI) in the assay with MDA-MB-435 is over 100 µM; in the assay with MDA-N, over 100 µM; in the assay on SK-MEL-5 melanoma, over 100 µM; in the assay with K-562 leukemia it was over 100 µM; in the assay with BT-549 breast, 69 µM; in the assay on HCT-15 colon, over 100 µM. The TGI in the assay on SNB-19 CNS is over 100 µM; in the assay on KM12 colon, 44.3 µM; in the assay with MALME-3M melanoma, over 100 µM; in the assay on M14 melanoma, over 100 µM; with NCI-H23 lung it was 46.2 µM; in the assay on MCF7 breast, over 100 µM.
`Cc1cc(=O)oc2c(C)c3oc(CBr)c(Br)c3cc12`: the TGI is 31.6 µM with CAKI-1 renal; 97.7 µM in the assay with OVCAR-8 ovarian; over 100 µM in the assay on TK-10 renal; 49 µM in the assay with NCI-H460 lung; 29.7 µM in the assay on 786-0 renal; over 100 µM in the assay on OVCAR-3 ovarian. Further, the TGI in the assay on MDA-MB-435 was over 100 µM; with MDA-N, over 100 µM; with SK-MEL-5 melanoma it was 33.8 µM; with SNB-75 CNS, 70 µM; with K-562 leukemia, 66.8 µM; in the assay with BT-549 breast, over 100 µM. For the same compound, the total growth inhibition concentration (TGI) is over 100 µM in the assay on HCT-15 colon; over 100 µM with SNB-19 CNS; 83.8 µM in the assay on KM12 colon; 50.3 µM in the assay on M14 melanoma; over 100 µM with NCI-H23 lung; over 100 µM in the assay with MCF7 breast.
As for `O=C(NCCNCCNC(=O)C(F)(F)F)C(F)(F)F`, the TGI in the assay with CAKI-1 renal, in the assay on OVCAR-8 ovarian, in the assay on TK-10 renal, in the assay with 786-0 renal, in the assay with OVCAR-3 ovarian and with MDA-MB-435 was over 100 µM in each case. In addition, the TGI with MDA-N, with SK-MEL-5 melanoma, in the assay on K-562 leukemia, in the assay on BT-549 breast, with HCT-15 colon and with SNB-19 CNS was over 100 µM in each case. The TGI with KM12 colon, in the assay with MALME-3M melanoma, with M14 melanoma, in the assay on NCI-H23 lung and in the assay with MCF7 breast was over 100 µM throughout.
With `CCCC(=O)Oc1ccc2c(C)cc(=O)oc2c1OC(=O)CCC`, the TGI in the assay on OVCAR-8 ovarian, in the assay on TK-10 renal, in the assay with 786-0 renal, in the assay on OVCAR-3 ovarian, in the assay with MDA-MB-435 and in the assay with MDA-N was over 100 µM in each case. For the same compound, the TGI with SK-MEL-5 melanoma, with SNB-75 CNS, in the assay on K-562 leukemia, with HCT-15 colon, in the assay with SNB-19 CNS and in the assay on KM12 colon was over 100 µM throughout. The concentration for total growth inhibition (TGI) in the assay on MALME-3M melanoma, with A498 renal, with M14 melanoma, in the assay on NCI-H23 lung and in the assay on MCF7 breast was over 100 µM throughout.
